Measured values taken from the NIST ThermoML archive (doi:10.1016/j.fluid.2017.01.024).
Several values for one entry are separate records, joined by “and”; a condition that tells them apart may be missing. Identical values can stand only once. ± gives the expanded uncertainty stated by the source.

Conditions: Liquid, Closed cell (Static) method

Q: For `C=C(F)C(F)(F)F` [2,3,3,3-tetrafluoro-1-propene], which “vapor or sublimation pressure” value (283.15 K) is on record?
A: 437.4 ± 1.2 kPa and 437.4 ± 1.6 kPa

Q: And the “vapor or sublimation pressure” value (288.15 K)?
A: 509.9 ± 1.3 kPa

Q: What about the “vapor or sublimation pressure” value (293.15 K) of the same molecule?
A: 591.7 ± 2 kPa

Q: What about the “vapor or sublimation pressure” value (293.16 K) of the same molecule?
A: 591.7 ± 1.4 kPa

Q: What about the “vapor or sublimation pressure” value (298.15 K) of the same molecule?
A: 681.9 ± 1.4 kPa

Q: What about the “vapor or sublimation pressure” value (303.15 K) of the same molecule?
A: 782.5 ± 2.5 kPa and 782.5 ± 1.6 kPa

Q: And the “vapor or sublimation pressure” value (308.16 K)?
A: 893.6 ± 1.7 kPa

Q: What about the “vapor or sublimation pressure” value (313.15 K) of the same molecule?
A: 1017.8 ± 3.2 kPa

Q: What about the “vapor or sublimation pressure” value (313.16 K) of the same molecule?
A: 1017.8 ± 1.8 kPa

Q: And the “vapor or sublimation pressure” value (318.16 K)?
A: 1153.2 ± 2 kPa

Q: And the “vapor or sublimation pressure” value (323.15 K)?
A: 1301.4 ± 4.1 kPa and 1301.4 ± 2.2 kPa

Q: Which “vapor or sublimation pressure” value (283.15 K) does the source give for `FCF` [difluoromethane] here?
A: 1107.3 ± 3.5 kPa

Q: And the “vapor or sublimation pressure” value (293.15 K)?
A: 1474 ± 4.7 kPa

Q: What about the “vapor or sublimation pressure” value (303.15 K) of the same molecule?
A: 1925.8 ± 6.1 kPa

Q: And the “vapor or sublimation pressure” value (313.15 K)?
A: 2476.2 ± 7.8 kPa

Q: What about the “vapor or sublimation pressure” value (323.15 K) of the same molecule?
A: 3138 ± 9.8 kPa

Q: Which “vapor or sublimation pressure” value (283.15 K) does the source give for `CCF` [fluoroethane] here?
A: 601.4 ± 1.4 kPa and 601.4 ± 2 kPa

Q: What about the “vapor or sublimation pressure” value (288.16 K) of the same molecule?
A: 698.2 ± 1.5 kPa

Q: And the “vapor or sublimation pressure” value (293.15 K)?
A: 805.6 ± 2.6 kPa and 805.6 ± 1.6 kPa

Q: What about the “vapor or sublimation pressure” value (298.14 K) of the same molecule?
A: 924.8 ± 1.7 kPa

Q: What about the “vapor or sublimation pressure” value (303.15 K) of the same molecule?
A: 1057.4 ± 3.3 kPa and 1057.4 ± 1.9 kPa

Q: And the “vapor or sublimation pressure” value (308.15 K)?
A: 1203.4 ± 2.1 kPa

Q: And the “vapor or sublimation pressure” value (313.15 K)?
A: 1363.6 ± 4.3 kPa

Q: And the “vapor or sublimation pressure” value (313.16 K)?
A: 1363.6 ± 2.3 kPa

Q: And the “vapor or sublimation pressure” value (318.15 K)?
A: 1539 ± 2.5 kPa

Q: What about the “vapor or sublimation pressure” value (323.15 K) of the same molecule?
A: 1730.6 ± 5.4 kPa and 1730.6 ± 2.8 kPa
